Laboratory results: paper PMC10180349 (Molecules, 2023)

How the values were obtained:
MDA-MB-231 cells [1] = test: Annexin V-FITC/PI flow cytometry apoptosis assay; assay type: cell-based, Human; conditions: 48 h
Method: Cell apoptosis analysis was performed according to the manufacturer’s protocol of the Annexin V-FITC Detection kit (Beyotime, Shanghai, China). […] Finally, the samples were tested by flow cytometer (BD FACSCelesta) and analyzed using FlowJo Software (Tree Star Inc., Ashland, OR, USA). The PTX-treated group was used as a positive control.

MDA-MB-231 cells [2] = test: Transmission electron microscopy of treated cells; assay type: cell-based, Human; conditions: MDA-MB-231, 0.1 nM, 48 h
Method: Ultrathin sections were isolated, stained with uranyl acetate and lead citrate for 10 min, and finally observed through the Hitachi H-7650 transmission electron microscope (Tokyo, Japan). The PTX-treated group was used as a positive control.

[3] = test system: microtubules in MDA-MB-231 cells; test: Immunofluorescence staining of microtubules (α-tubulin antibody); assay type: cell-based, Human; conditions: MDA-MB-231, 0.1 nM, 48 h
Method: Cells were fixed with 4% paraformaldehyde for 20 min, permeabilized with 0.1%Triton X-100 for 5 min, and blocked with 1% BSA for 1.5 h. Next, cells were incubated with α-tubulin antibody (1:400 Abcam, AB52866) at 4 °C overnight, followed by the Alexa Fluor 488 conjugated goat anti-rabbit IgG secondary antibody (1:300, ZF-0511, Zhongshan Goldenbridge Biotechnology, Beijing, China). Finally, nuclei were stained with DAPI for 4 min. Stained cells were observed using a laser confocal microscope (LSM700; Zeiss, Gottingen, Germany). The PTX-treated group was used as a positive control.

MDA-MB-231 cells [4] = test: Cell cycle analysis (PI, flow cytometry); assay type: cell-based, Human; conditions: 48 h
Method: Cell cycle assay was performed using the DNA Content Quantitation Assay (Solarbio, Beijing, China). […] Then, the fixed cells were incubated with RNase A solution at 37 °C for 30 min and stained with PI in the dark for 30 min at 4 °C. The red fluorescence was detected using a flow cytometer (BD FACSCalibur) at 488 nm and analyzed by FlowJo Software (Tree Star Inc, Ashland, OR, USA). The PTX-treated group was set as a positive control.

[5] = test system: MDA-MB-231 xenograft tumor tissue; test: TUNEL assay of tumor slides; assay type: in vivo, Female BALB/c nude mice; conditions: PTX-TTHA 6.87-13.73 mg/kg q3d; PTX 10 mg/kg q7d
Method: The tumor slides of MDA-MB-231 xenograft mice were deparaffinized and rehydrated as per the method described above. Then, the TUNEL assay was performed according to the manufacturer’s instructions. Briefly, slides were permeabilized with proteinase K for 20 min and blocked with 3% H2O2 for 10 min. After washing, slides were incubated with Biotin labeling solution for 1 h, and the nucleus was counterstained with DAPI for 1 min. The localized red fluorescence of the apoptotic cells was visualized by fluorescence microscopy. Two experienced pathologists randomly selected 10 (×200) fields for every slide and then analyzed them. The percentage of TUNEL-positive cells among total cells was semi-quantitatively measured with the Image-J software.

[6] = cited from earlier work
MDA-MB-231 [7] = test: cells; conditions: Homo sapiens, MDA-MB-231, 48 h
MCF-7 [8] = test: cells; conditions: Homo sapiens, MCF7, 48 h
4T1 [9] = test: cells; conditions: Mus musculus, 4T1, 48 h
physchem = conditions: water
[10] = Solubility experiment in water; conditions: for appearance of sample in water (solubility by photograph): diluted to 5 mg/mL by water
[11] = Acute-toxicity experiment, single dose via tail vein
MCF 10A = assay type: cell-based; conditions: Homo sapiens, 48 h
caspase-3 = test: Caspase-3 activity assay in cell lysates; assay type: cell-based, Human; conditions: MDA-MB-231, 0.1 and 1 nM, 48 h
Method: The activity of caspase-3 was performed according to the manufacturer’s protocol of the Caspase-3 Activity Assay Kit (Beyotime, Shanghai, China). […] Then, the absorbance was measured at 405 nm using a Microplate Reader (Thermo 3001, Vantaa, Finland), and the protein concentration was obtained via Bradford assay. Data were normalized for the protein content of each supernatant and expressed as the relative value compared to the control. The PTX-treated group was used as a positive control.

Bax = test: Western blot of xenograft tumor tissues; assay type: in vivo, Female BALB/c nude mice; conditions: 6.87, 10.30, 13.73 mg/kg q3d, dose-dependent, p < 0.01
Method: (§1) The removed tumor tissues were cut into pieces and homogenized in RIPA lysis buffer (Cat#P0013B; Beyotime, Shanghai, China) containing PMSF protease inhibitor (Cat#ST506; Beyotime, Shanghai, China) (RIPA: PMSF = 100:1) using a glass homogenizer on ice for 30 min. The lysates were harvested by centrifugation (12,000 rpm) at 4 °C for 5 min. The protein concentrations were measured by BCA Protein Assay Kit (Beyotime, Shanghai, China) and boiled at 95 °C for 5 min. Then, equal amounts of proteins (30 μg) from five groups were separated by 10% SDS-PAGE and transferred to PVDF membranes (EMD Millipore, Billerica, MA, USA). The membranes were blocked with 5% non-fat milk for 2 h and washed with TBST buffer. Next, membranes were incubated with primary antibodies (β-actin, cleaved caspase-3, Bax, Bcl-2) at a dilution of 1:1000 at 4 °C overnight, followed by the goat anti-rabbit HRP-conjugated secondary antibody (1:5000) for 2 h at room temperature. β-actin was used as an internal control. Protein bands were visualized by a chemiluminescence detection system (Bio-Rad, Hercules, CA, USA) and quantitated using the Image-J software.

Bcl-2 = test: Western blot of xenograft tumor tissues; assay type: in vivo, Female BALB/c nude mice; conditions: 6.87, 10.30, 13.73 mg/kg q3d, dose-dependent, p < 0.01
Method: as §1

cleaved caspase-3 = test: Western blot of xenograft tumor tissues; assay type: in vivo, Female BALB/c nude mice; conditions: 6.87, 10.30, 13.73 mg/kg q3d, dose-dependent, p < 0.01
Method: as §1

Ki-67 = Ki-67 immunohistochemical staining of tumor slides; assay type: in vivo, Female BALB/c nude mice; conditions: 6.87, 10.30, 13.73 mg/kg q3d, p < 0.01
Method: The tumor slides of MDA-MB-231 xenograft mice were deparaffinized and rehydrated as per the method described above. Next, slides were boiled in citrate antigen retrieval solution for 2 min and then blocked with 3% H2O2 for 10 min. After washing, slides were incubated with primary Ki-67 antibody (1:400, Abcam AB15580) at 4 °C overnight, followed by incubation with the goat anti-rabbit HRP-conjugated secondary antibody (1:500) for 1 h at RT. Finally, slides were stained with DAB chromogenic reagent and hematoxylin. Images were visualized using a Zeiss microscope (Carl Zeiss Meditec AG, Jena, Germany). Three separate visual fields were randomly selected from each slice. The percentage of the positive area was semi-quantitatively analyzed with the Image-J software.

MDA-MB-231 [12] = conditions: SI = IC50 MCF 10A/IC50 MDA-MB-231, 48 h
MCF-7 [13] = conditions: SI = IC50 MCF 10A/IC50 MCF-7, 48 h
4T1 [14] = conditions: SI = IC50 MCF 10A/IC50 4T1, 48 h
[15] = test system: MDA-MB-231 xenograft breast tumor model; test: In vivo antitumor assay; conditions: medium dose 10.30 mg/kg (MPTX-TTHA), q3d, tail vein, 21 days
[16] = Organ-body indices and signs of toxicity in the xenograft model; conditions: q3d, 3 weeks

## CC(=O)O[C@H]1C(=O)[C@@]2(C)[C@H]([C@H](OC(=O)c3ccccc3)[C@]3(O)C[C@H](OC(=O)[C@H](O)[C@@H](NC(=O)c4ccccc4)c4ccccc4)C(C)=C1C3(C)C)[C@]1(OC(C)=O)CO[C@@H]1C[C@@H]2O [PTX, Paclitaxel, reference compound]
MDA-MB-231 cells [1]; 0.1 nM, control 2.17% ± 0.76%
  cell apoptosis rate: 29.57% ± 3.31
MDA-MB-231 cells [2]
  morphological changes of apoptosis (TEM): remarkable cellular apoptosis-related characteristics were observed
[3]
  microtubule fluorescence intensity compared with the control group: enhanced fluorescence intensity of microtubules
MDA-MB-231 cells [4]; 0.1 nM, control 8.74 ± 0.60%
  cells in G2/M phase: 24.22 ± 0.70%
[5]
  TUNEL signal of apoptotic cells in tumor tissue: strong red fluorescent signal
[6]
  solubility in water: 0.3 to 0.5 µg/mL
MDA-MB-231 [7]
  IC50: 8.68 ± 0.75 nM
MCF-7 [8]
  IC50: 9.99 ± 0.94 nM
4T1 [9]
  IC50: 9.45 ± 1.34 nM
physchem
  solubility: < 0.7 µg/mL
[10]
  appearance of sample in water (solubility by photograph): almost insoluble in water
[11]; 20 mg/kg CrEL paclitaxel, Taxol (PTX), day 3, p < 0.001
  ALT, AST, Scr, WBC and NEUT values compared with controls: significantly altered

## CC(=O)O[C@H]1C(=O)[C@@]2(C)[C@H]([C@H](OC(=O)c3ccccc3)[C@]3(O)C[C@H](OC(=O)[C@H](OC(=O)CN(CCN(CCN(CCN(CC(=O)O)CC(=O)O)CC(=O)O)CC(=O)O)CC(=O)O)[C@@H](NC(=O)c4ccccc4)c4ccccc4)C(C)=C1C3(C)C)[C@]1(OC(C)=O)CO[C@@H]1C[C@@H]2O [PTX-TTHA, 3,6,9,12-Tetraazatetradecanedioic acid, 3,6,9,12-tetrakis(carboxymethyl)-1-[2-(benzoylamino)-1-[[[6,12b-bis(acetyloxy)-12-(benzoyloxy)-2a,3,4,4a,5,6,9,10,11,12,12a,12b-dodecahydro-4,11-dihydroxy-4a,8,13,13-tetramethyl-5-oxo-7,11-methano-1H-cyclodeca [3, 4]benz [1,2-b]oxet-9-yl]oxy]carbonyl]-2-phenylethyl] ester]
MCF 10A
  IC50: 367 ± 8.2 nM
MDA-MB-231 cells [1]; 0.1 nM, control 2.17% ± 0.76%
  cell apoptosis rate: 30.4% ± 3.61
MDA-MB-231 cells [1]; 1 nM
  cell apoptosis rate: 50.5% ± 2.19
caspase-3
  caspase-3 activity compared with the control group: significantly activated
MDA-MB-231 cells [2]
  morphological changes of apoptosis (TEM): remarkable cellular apoptosis-related characteristics were observed
[3]
  microtubule fluorescence intensity compared with the control group: enhanced fluorescence intensity of microtubules
MDA-MB-231 cells [4]; 0.1 nM, control 8.74 ± 0.60%
  cells in G2/M phase: 23.06 ± 0.92%
MDA-MB-231 cells [4]; 1 nM
  cells in G2/M phase: 51.40% ± 0.45
Bax
  Bax expression level in tumor compared with the control group: significantly upregulated
Bcl-2
  Bcl-2 expression level in tumor compared with the control group: significantly downregulated
Cleaved caspase-3
  cleaved caspase-3 expression level in tumor compared with the control group: significantly upregulated
Ki-67
  Ki-67 expression in tumor tissues compared with the control group: significantly reduced
[5]
  TUNEL signal of apoptotic cells in tumor tissue: strong red fluorescent signal
MDA-MB-231 [12]
  selectivity index (SI): 28.97
MCF-7 [13]
  selectivity index (SI): 23.19
4T1 [14]
  selectivity index (SI): 21.36
MDA-MB-231 [7]
  IC50: 12.7 ± 1.34 nM
MCF-7 [8]
  IC50: 15.8 ± 1.04 nM
4T1 [9]
  IC50: 17.2 ± 1.96 nM
physchem; thermodynamic from solid
  solubility: > 5000 µg/mL
[15]
  tumor inhibition rate: ~70.51%
[10]
  appearance of sample in water (solubility by photograph): completely clear
[10]; water
  water solubility, fold higher than that of paclitaxel: about 7140 fold
[11]; 138.6 mg/kg, single dose
  histopathology of main organs (H&E): No histological alterations were observed
[11]; 138.6 mg/kg, single dose, day 2, normal thereafter
  body weight change compared with controls: slight weight loss
[11]; 138.6 mg/kg, single dose, day 3 and day 14
  blood biochemical and hematological test index values compared with control: no significant differences
[11]; 138.6 mg/kg, single dose, tail vein, 14 days
  toxic signs after administration: none of these toxic signs were observed
[11]; limit dose 138.6 mg/kg, i.v.
  acute toxicity on vital organs, hematological, and biochemical parameters: no sign of acute toxicity
[16]; 6.87, 10.30, 13.73 mg/kg, tail vein
  signs of toxicity during treatment: No noticeable signs of toxicity were observed
[16]; HPTX-TTHA, 13.73 mg/kg
  organ-body index, Heart: 5.56 ± 0.49 mg/g
  organ-body index, Kidney: 16.09 ± 0.50 mg/g
  organ-body index, Liver: 63.73 ± 5.63 mg/g
  organ-body index, Lung: 7.28 ± 0.73 mg/g
  organ-body index, Spleen: 6.20 ± 0.65 mg/g
[16]; LPTX-TTHA, 6.87 mg/kg
  organ-body index, Heart: 5.56 ± 0.63 mg/g
  organ-body index, Kidney: 16.03 ± 0.49 mg/g
  organ-body index, Liver: 63.63 ± 4.54 mg/g
  organ-body index, Lung: 7.29 ± 0.79 mg/g
  organ-body index, Spleen: 6.35 ± 0.51 mg/g
[16]; MPTX-TTHA, 10.30 mg/kg
  organ-body index, Heart: 5.49 ± 0.15 mg/g
  organ-body index, Kidney: 16.05 ± 0.47 mg/g
  organ-body index, Liver: 63.20 ± 5.17 mg/g
  organ-body index, Lung: 7.16 ± 0.61 mg/g
  organ-body index, Spleen: 6.16 ± 1.05 mg/g
